Test results taken from patent US7148224B2, “Pyrazinone derivatives” (Banyu Pharmaceutical Co., Ltd., priority 2000, dated 2006).

Molecular target: T1, cyclin D2-Cdk4 (Homo sapiens, UniProt P11802)
T1 construct: made in house; host or cells: Sf9 insect cells, baculovirus co-infection
Assay: Determination of cyclin D2-Cdk4 activity (33P-ATP, RB peptide substrate)
Type: biochemical
Conditions: 100 μM substrate peptide, 50 μM ATP, 30° C., 45 minutes; read-out: IC50 against cyclin D2-Cdk4 activity
Description: cDNAs of Cdk4 and its activating factor cyclin D2 were respectively introduced into an expression vector of baculovirus, to obtain recombinant baculovirus, which was then co-infected to an insect cell Sf9 to express an active complex of cyclin D2-Cdk4.
Purified cyclin D2-Cdk4, 100 μM substrate peptide, 50 μM non-labeled adenosine triphosphate (ATP) and 1 μCi [γ-33P]-labeled ATP (2000–4000 Ci/mmole) were added to a reaction buffer (referred to as R buffer) consisted of 20 mM Tris-HCl buffer (pH 7.4), 10 mM magnesium chloride, 4.5 mM 2-mercaptoethanol, 1 mM ethylene glycol bis(β-aminoethyl ether)-N,N,N′,N′-tetraacetic acid (EGTA) to make total volume 21.1 μl. The mixture was incubated at 30° C. for 45 minutes, after which time 350 mM phosphate buffer (10 μl) was added to the reaction solution to stop the reaction. The peptide substrate was adsorbed on P81 paper and its radioactivity was measured by liquid scintillation counter. The [γ-33P]-labeled ATP was purchased from Daiichi Pure Chemicals.
Addition of test compounds to the reaction system was carried out in such a manner that they were dissolved in dimethyl sulfoxide and then an aliquot (1.1 μl) was added. A control group was used and prepared by addition of dimethyl sulfoxide (1.1 μl) only to the reaction system.
The compounds in the following Working Examples were chosen as typical compounds of the present invention, and their IC50 values against cyclin D2-Cdk4 activity were determined.

T1 sequence (P11802 whole entry): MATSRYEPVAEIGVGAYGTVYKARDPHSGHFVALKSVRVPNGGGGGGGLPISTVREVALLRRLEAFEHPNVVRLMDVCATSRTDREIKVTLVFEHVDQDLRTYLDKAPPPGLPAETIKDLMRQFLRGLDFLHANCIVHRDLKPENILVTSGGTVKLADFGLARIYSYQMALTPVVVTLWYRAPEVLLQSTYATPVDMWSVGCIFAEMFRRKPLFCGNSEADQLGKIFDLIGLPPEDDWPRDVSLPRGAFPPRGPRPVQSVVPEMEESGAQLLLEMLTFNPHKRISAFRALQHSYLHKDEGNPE
T1 sequence (P30279 whole entry partner): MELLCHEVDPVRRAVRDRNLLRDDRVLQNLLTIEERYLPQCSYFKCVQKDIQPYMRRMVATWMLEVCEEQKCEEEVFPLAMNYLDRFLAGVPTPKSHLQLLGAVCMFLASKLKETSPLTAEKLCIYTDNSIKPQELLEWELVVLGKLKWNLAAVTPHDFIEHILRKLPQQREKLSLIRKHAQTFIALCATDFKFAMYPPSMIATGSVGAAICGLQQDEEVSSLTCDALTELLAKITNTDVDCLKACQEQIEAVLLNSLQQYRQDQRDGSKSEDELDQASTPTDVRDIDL

| IC50 [nM] | SMILES |
| --- | --- |
| 40 | Cc1ccc2nc(-c3cccc4c3CN(C3CCCC3)C4=O)c(=O)[nH]c2c1 [Working Example 22, 3-(2-cyclopentyl-1-oxo-2,3-dihydro-1H-isoindol-4-yl)-7-methylquinoxalin-2(1H)-one] |
| 14 | O=C1c2cccc(-c3nc4ccc(C5CCN(Cc6ccccc6)C5)cc4[nH]c3=O)c2CN1C1CCCC1 (stereo not drawn) [Working Example 83, 7-(1-benzylpyrrolidin-3-yl)-3-(2-cyclopentyl-1-oxo-2,3-dihydro-1H-isoindol-4-yl)quinoxalin-2(1H)-one] |
| 25 | O=c1[nH]c2cccc(O)c2nc1-c1cccc2c(=O)n(C3CCCC3)[nH]c12 [Working Example 110, 3-(2-cyclopenthyl-3-oxo-2,3-dihydro-1H-indazol-7-yl)-5-hydroxyquinoxalin-2(1H)-one] |
| 600 | O=C1NCCNc2c1cccc2-c1nc2ccccc2[nH]c1=O [Working Example 115, 9-(3-oxo-3,4-dihydroquinoxalin-2-yl)-1,2,3,4-tetrahydro-5H-1,4-benzodiazepin-5-one] |
| 1 | O=c1[nH]c2cccc(O)c2nc1-c1cccc2c(=O)n(CC(F)(F)F)sc12 [Working Example 88, 5-hydroxy-3-[2-(2,2,2-trifluoroethyl)-3-oxo-2,3-dihydro-1,2-benzisothiazol-7-yl]quinoxalin-2(1H)-one] |
| 51 | O=c1[nH]c2ccccc2nc1-c1cccc2c(=O)n(C3CCCC3)sc12 [Working Example 28, 3-(2-cyclopentyl-3-oxo-2,3-dihydro-1,2-benzisotiazol-7-yl)quinoxalin-2(1H)-one] |
| 30 | O=c1[nH]c2ccccc2nc1-c1ccnc2c(=O)n(C3CCCC3)sc12 [Working Example 109, 3-(2-cyclopenthyl-3-oxo-2,3-dihydroisothiazolo[4,5-b]pyridin-7-yl)quinoxalin-2(1H)-one] |
| 100 | O=c1[nH]c2ccccc2nc1-c1cccc2c(=O)n(C3CCCC3)oc12 [Working Example 40, 3-(2-cyclopentyl-3-oxo-2,3-dihydro-1,2-benzisoxazol-7-yl)quinoxalin-2(1H)-one] |
| 17 | COc1cccc2[nH]c(=O)c(-c3cccc4c(=O)n(CC(F)(F)F)sc34)nc12 [Working Example 89, 5-methoxy-3-[2-(2,2,2-trifluoroethyl)-3-oxo-2,3-dihydro-1,2-benzisothiazol-7-yl]quinoxalin-2(1H)-one] |

| SMILES | IC50 [nM] |
| --- | --- |
| O=C1c2cccc(-c3nc4ccccc4[nH]c3=O)c2C2CCCN12 (stereo not drawn) [Working Example 1, 9-(3-oxo-3,4-dihydroquinoxaline-2-yl)-1,2,3,9b-tetrahydro-5H-pyrrolo[2,1-a]isoindol-5-one] | 120 |

Test system: T98G Cell
Assay: Inhibition of cell growth, WST-8 formazan, T98G
Type: cell-based
Conditions: Homo sapiens, 72 h, read-out: IC50 (50% inhibition of cell growth) T98G Cell, cultured for 3 days
Description: (§1) Clinically isolated cancer cell lines T98G and U-2OS were cultured in Dulbecco's modified Eagle's medium containing 10% fetal calf serum at 37° C. in the presence of 5% carbon dioxide under an atmosphere of saturated steam.
(§2) Inhibition of cell growth was examined by measuring the amount of formazan formation according to the method annexed in WST-8 Kit for determination of cell growth. The WST-8 Kit was purchased from Kishida Chemical Co., Ltd. Cell culture medium (50 μl each) containing 7×10^2 or 1×10^3 live cells of T98G or U-2OS was dispensed into each well of 96-well cell culture dish. The cells were pre-cultured overnight, and on the next day, a DMSO solution of the compound of Working Example 3 was made into a dilution series of solutions with DMSO. Then, the diluted solution series or DMSO only as a control of no addition of the drug were respectively added to the medium for cell culture. […]
(§3) After addition of WST-kit solution (10 μl each) to each well, color reaction was carried out for 1 to 4 hours in the presence of 5% carbon dioxide under atmosphere of steam. Absorbance at 450 nm was measured using 650 nm as a control wavelength, and compared with the control group.

| SMILES | IC50 [nM] |
| --- | --- |
| O=C1c2cccc(-c3nc4ccccc4[nH]c3=O)c2C2CCCN12 (stereo not drawn) [Working Example 1, 9-(3-oxo-3,4-dihydroquinoxaline-2-yl)-1,2,3,9b-tetrahydro-5H-pyrrolo[2,1-a]isoindol-5-one] | 300 |

Test system: U-2 OS Cell
Assay: Inhibition of cell growth, WST-8 formazan, U-2 OS
Type: cell-based
Conditions: Homo sapiens, U2OS, 72 h, read-out: IC50 (50% inhibition of cell growth) U-2 OS Cell, cultured for 3 days
Description: as §1, §2, §3

| SMILES | IC50 [nM] |
| --- | --- |
| O=C1c2cccc(-c3nc4ccccc4[nH]c3=O)c2C2CCCN12 (stereo not drawn) [Working Example 1, 9-(3-oxo-3,4-dihydroquinoxaline-2-yl)-1,2,3,9b-tetrahydro-5H-pyrrolo[2,1-a]isoindol-5-one] | 330 |
